Experimental data taken from ChEMBL document CHEMBL3352405, “Design and synthesis of sulfamoyl benzoic acid analogues with subnanomolar agonist activity specific to the LPA2 receptor” (J Med Chem, 2014).

Assays:
[1] = target: T1, Lysophosphatidic acid receptor 2 (Homo sapiens, UniProt Q9HBW0); assay: Agonist activity at human LPA2 expressed in LPA1xLPA2 double knockout mouse MEF cells by Fura-2AM dye based Ca2+ mobilization assay relative to LPA 18:1; type: functional, cell-based
[2] = target: T2, Lysophosphatidic acid receptor 3 (Homo sapiens, UniProt Q9UBY5); assay: Antagonist activity at human LPA3 expressed in RH7777 cells assessed as reduction in […]-induced calcium mobilization by Fura-2AM dye based Ca2+ mobilization assay
T2 sequence (Q9UBY5 whole entry): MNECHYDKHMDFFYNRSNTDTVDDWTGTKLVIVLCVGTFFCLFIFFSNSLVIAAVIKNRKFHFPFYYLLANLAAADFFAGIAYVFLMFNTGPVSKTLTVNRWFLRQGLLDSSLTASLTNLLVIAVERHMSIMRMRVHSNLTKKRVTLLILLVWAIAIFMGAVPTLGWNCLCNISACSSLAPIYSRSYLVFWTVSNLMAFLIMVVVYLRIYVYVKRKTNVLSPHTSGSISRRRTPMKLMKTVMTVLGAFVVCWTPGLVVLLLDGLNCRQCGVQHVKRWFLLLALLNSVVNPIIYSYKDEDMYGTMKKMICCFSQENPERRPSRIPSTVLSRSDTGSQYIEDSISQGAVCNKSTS

[3] = target: T1, Lysophosphatidic acid receptor 2; assay: Agonist activity at human LPA2 expressed in LPA1xLPA2 double knockout mouse MEF cells by Fura-2AM dye based Ca2+ mobilization assay; type: functional, cell-based
[4] = target: Lysophosphatidic acid receptor 1 (Homo sapiens, UniProt Q92633); assay: Agonist activity at human LPA1 expressed in RH7777 cells up to 10 uM by Fura-2AM dye based Ca2+ mobilization assay
Chain of Lysophosphatidic acid receptor 1 (Q92633 whole entry): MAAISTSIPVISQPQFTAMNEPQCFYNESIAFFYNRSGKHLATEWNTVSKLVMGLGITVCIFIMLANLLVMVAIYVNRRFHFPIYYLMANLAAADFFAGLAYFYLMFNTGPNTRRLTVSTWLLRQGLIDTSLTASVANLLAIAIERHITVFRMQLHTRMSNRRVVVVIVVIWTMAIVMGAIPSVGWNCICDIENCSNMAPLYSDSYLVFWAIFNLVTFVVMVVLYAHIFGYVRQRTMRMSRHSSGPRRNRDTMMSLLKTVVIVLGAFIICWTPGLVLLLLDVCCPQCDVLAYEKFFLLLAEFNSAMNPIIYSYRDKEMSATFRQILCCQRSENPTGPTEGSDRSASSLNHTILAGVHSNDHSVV

T1 sequence (Q9HBW0 whole entry): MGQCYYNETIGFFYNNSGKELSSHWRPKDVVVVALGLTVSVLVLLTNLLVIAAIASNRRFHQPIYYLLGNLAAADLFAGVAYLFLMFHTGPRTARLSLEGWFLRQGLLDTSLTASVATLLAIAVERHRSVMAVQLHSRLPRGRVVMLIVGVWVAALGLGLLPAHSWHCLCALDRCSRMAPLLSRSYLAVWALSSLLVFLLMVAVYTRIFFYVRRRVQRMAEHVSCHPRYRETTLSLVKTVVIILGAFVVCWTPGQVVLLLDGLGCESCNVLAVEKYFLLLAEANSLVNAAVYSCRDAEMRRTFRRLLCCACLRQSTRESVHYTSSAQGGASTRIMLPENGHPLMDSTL

Structure (SMILES)	Emax [1]	IC50 [2]	EC50 [3]	EC50 [4]
O=C(O)c1ccccc1SCCCN1C(=O)c2cccc3cccc(c23)C1=O	75%	6600 nM		
O=C(O)c1ccccc1S(=O)(=O)NCCCCCN1C(=O)c2cccc3cccc(c23)C1=O	100%		1420 nM	
O=C(O)c1ccccc1S(=O)(=O)NCCCCN1C(=O)c2cccc3cccc(c23)C1=O	100%		110 nM	
O=C(O)c1ccccc1S(=O)(=O)NCCCN1C(=O)c2cccc3cccc(c23)C1=O			2160 nM	
O=C(O)c1ccc(Br)cc1S(=O)(=O)NCCCCN1C(=O)c2cccc3cccc(c23)C1=O	100%		50 nM	
CCCCCCCC/C=C\CCCCCCCC(=O)OC[C@@H](O)COP(=O)(O)O [LYSOPHOSPHATIDIC ACID]				350 nM
O=C(O)c1cc(F)ccc1S(=O)(=O)NCCCCN1C(=O)c2cccc3cccc(c23)C1=O	119%		0.15 nM	
O=C(O)c1cc(Br)ccc1S(=O)(=O)NCCCCN1C(=O)c2cccc3cccc(c23)C1=O	104%		60 nM	
O=C(O)c1cc(Cl)ccc1S(=O)(=O)NCCCCN1C(=O)c2cccc3cccc(c23)C1=O	124%			
O=C(O)c1ccc2c(c1)S(=O)(=O)N(CCCCN1C(=O)c3cccc4cccc(c34)C1=O)C2=O	100%			
